Experimental data from PubChem BioAssay (NCI).
“And” between values parts separate entries of the source, which are not always exact repeats. Equal values may be shown once.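 Following 48 hours of exposure in 96-well plates, responses at five concentrations were used to interpolate endpoints linearly. Here, GI50 denotes the concentration required for 50% inhibition of growth. Definition used: TGI = concentration required for complete inhibition of growth.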

Columns and labels:
Assay in all cases: inhibition of tumour cell growth, NCI panel, 48 h
MCF7 breast = system: MCF7 breast
MDA-MB-435 = system: MDA-MB-435
SK-MEL-28 melanoma = system: SK-MEL-28 melanoma
A498 renal = system: A498 renal
COLO 205 colon = system: COLO 205 colon
TK-10 renal = system: TK-10 renal
UACC-62 melanoma = system: UACC-62 melanoma
MDA-N = system: MDA-N
UO-31 renal = system: UO-31 renal
NCI-H23 lung = system: NCI-H23 lung
K-562 leukemia = system: K-562 leukemia
SF-539 CNS = system: SF-539 CNS
HL-60(TB) leukemia = system: HL-60(TB) leukemia
HCT-116 colon = system: HCT-116 colon
NCI/ADR-RES ovarian = system: NCI/ADR-RES ovarian
786-0 renal = system: 786-0 renal
SK-MEL-2 melanoma = system: SK-MEL-2 melanoma
LOX IMVI melanoma = system: LOX IMVI melanoma
A549 NSCLC = system: A549 NSCLC
SNB-75 CNS = system: SNB-75 CNS
U251 CNS = system: U251 CNS
OVCAR-4 ovarian = system: OVCAR-4 ovarian
OVCAR-5 ovarian = system: OVCAR-5 ovarian
CCRF-CEM leukemia = system: CCRF-CEM leukemia
UACC-257 melanoma = system: UACC-257 melanoma
MOLT-4 leukemia = system: MOLT-4 leukemia
DU-145 prostate = system: DU-145 prostate
T-47D breast = system: T-47D breast
SK-OV-3 ovarian = system: SK-OV-3 ovarian
RPMI-8226 leukemia = system: RPMI-8226 leukemia
NCI-H522 lung = system: NCI-H522 lung
MDA-MB-231 breast = system: MDA-MB-231 breast
MALME-3M melanoma = system: MALME-3M melanoma
NCI-H460 lung = system: NCI-H460 lung
HCC-2998 colon = system: HCC-2998 colon
SNB-19 CNS = system: SNB-19 CNS
SN12C renal = system: SN12C renal
HS 578T breast = system: HS 578T breast
RXF 393 renal = system: RXF 393 renal
PC-3 prostate = system: PC-3 prostate
KM12 colon = system: KM12 colon
OVCAR-3 ovarian = system: OVCAR-3 ovarian
NCI-H226 lung = system: NCI-H226 lung
HOP-62 NSCLC = system: HOP-62 NSCLC
IGROV1 ovarian = system: IGROV1 ovarian
SF-295 CNS = system: SF-295 CNS

Molecule COC(=O)CCNc1c2ccccc2nc2cccc([N+](=O)[O-])c12 has a TGI (MCF7 breast) of 277 nM, a TGI (MDA-MB-435) of 1.04 nM and a GI50 (SK-MEL-28 melanoma) of 2.9 nM. The TGI (SK-MEL-28 melanoma) was 11.2 nM and 91.8 nM, the GI50 (A498 renal) was 18.5 nM and the TGI (A498 renal) was 58.5 nM. The TGI (COLO 205 colon) was 17.1 nM, the GI50 (TK-10 renal) was 3.04 nM and the TGI (TK-10 renal) was 31.2 nM. The GI50 (UACC-62 melanoma) was 1.36 nM, the TGI (UACC-62 melanoma) was 4.28 nM and 36.4 nM and the TGI (MDA-N) was 1.36 nM. The GI50 (UO-31 renal) was 1.39 nM, the TGI (UO-31 renal) was 4.92 nM and 11.3 nM and the GI50 (NCI-H23 lung) was 1260 nM. For the same molecule, the TGI (K-562 leukemia) was 1.52 nM, the GI50 (SF-539 CNS) was 2.38 nM and 13.1 nM and the TGI (SF-539 CNS) was 11.5 nM and 39.5 nM. It also gave a GI50 (HL-60(TB) leukemia) of 2.74 nM, a TGI (HL-60(TB) leukemia) of 28 nM and a TGI (HCT-116 colon) of 1110 nM. It also gave a TGI (NCI/ADR-RES ovarian) of 68 nM, a TGI (786-0 renal) of 1.34 nM and a GI50 (SK-MEL-2 melanoma) of 1.04 nM. The TGI (SK-MEL-2 melanoma) was 2.84 nM, the GI50 (LOX IMVI melanoma) was 3.67 nM and 12.6 nM and the TGI (LOX IMVI melanoma) was 17.2 nM and 53 nM. The TGI (A549 NSCLC) was 132 nM and 726 nM, the GI50 (SNB-75 CNS) was 18.5 nM and the TGI (SNB-75 CNS) was 72.2 nM. The TGI (U251 CNS) was 127 nM and 31.8 nM, the GI50 (OVCAR-4 ovarian) was 4.54 nM and the TGI (OVCAR-4 ovarian) was 25.1 nM. The TGI (OVCAR-5 ovarian) was 108 nM and 27.8 nM, the GI50 (CCRF-CEM leukemia) was 6.82 nM and 15.7 nM and the TGI (CCRF-CEM leukemia) was 180 nM and 68.9 nM. The GI50 (UACC-257 melanoma) was 2.3 nM and 12.2 nM, the TGI (UACC-257 melanoma) was 7.04 nM and 47.6 nM and the GI50 (MOLT-4 leukemia) was 1.07 nM. The TGI (MOLT-4 leukemia) was 117 nM and 12.4 nM, the TGI (DU-145 prostate) was 19.6 µM and the GI50 (T-47D breast) was 28.3 nM. For the same molecule, the TGI (T-47D breast) was 466 nM, the GI50 (SK-OV-3 ovarian) was 40.5 nM and the TGI (SK-OV-3 ovarian) was 405 nM and 180 nM. The TGI (RPMI-8226 leukemia) was 23.6 nM, the GI50 (NCI-H522 lung) was 1.6 nM and the TGI (NCI-H522 lung) was 4.93 nM. It also gave a GI50 (MDA-MB-231 breast) of 394 nM, a TGI (MDA-MB-231 breast) of 1440 nM and a TGI (MALME-3M melanoma) of 2.26 nM. For the same molecule, the GI50 (NCI-H460 lung) was 13.8 nM, the TGI (NCI-H460 lung) was 234 nM and the GI50 (HCC-2998 colon) was 1040 nM. For the same molecule, the TGI (HCC-2998 colon) was 2330 nM, the GI50 (SNB-19 CNS) was 4.16 nM and the TGI (SNB-19 CNS) was 217 nM and 49.5 nM. For the same molecule, the TGI (SN12C renal) was 16.8 nM, the TGI (HS 578T breast) was 12.8 nM and 65.1 nM and the TGI (RXF 393 renal) was 2.17 nM. The TGI (PC-3 prostate) was 126 nM, the TGI (KM12 colon) was 4.51 nM and the TGI (OVCAR-3 ovarian) was 3.97 nM. For the same molecule, the GI50 (NCI-H226 lung) was 3.47 nM, the TGI (NCI-H226 lung) was 33.3 nM and 37.8 nM and the GI50 (HOP-62 NSCLC) was 1.5 nM. For the same molecule, the TGI (HOP-62 NSCLC) was 6.67 nM, the TGI (IGROV1 ovarian) was 26.1 nM and 90.1 nM and the GI50 (SF-295 CNS) was 2.61 nM.
